According to US11541055B2, “Inhibitors of human immunodeficiency virus replication” (ViiV Healthcare UK (No. 5) LIMITED, priority 2018, dated 2023):

Tests used:
[1] = system: recombinant NL4-3 virus (Renilla luciferase) in MT-2 cells; assay: HIV cell culture assay (antiviral activity, luciferase readout); format: cell-based; conditions: Renilla, NL43
Protocol: HIV cell culture assay—MT-2 cells, 293T cells and the proviral DNA clone of NL4-3 virus were obtained from the NIH AIDS Research and Reference Reagent Program. MT-2 cells were propagated in RPMI 1640 media supplemented with 10% heat inactivated fetal bovine serum (FBS), […]. The 293T cells were propagated in DMEM media supplemented with 10% heat inactivated FBS, […] penicillin G and […] streptomycin. A recombinant NL40.3 proviral clone, in which a section of the nef gene was replaced with the Renilla luciferase gene, was used to make the reference virus used in these studies. The recombinant virus was prepared through transfection of the recombinant NL4-3 proviral clone into 293T cells using Transit-293 Transfection Reagent from Minis Bio LLC (Madison, Wis.). Supernatent was harvested after 2-3 days and the amount of virus present was titered in MT-2 cells using luciferase enzyme activity as a marker by measuring luciferase enzyme activity. Luciferase was quantitated using the EnduRen Live Cell Substrate from Promega (Madison, Wis.). Antiviral activities of compounds toward the recombinant virus were quantified by measuring luciferase activity in MT-2 cells infected for 4-5 days with the recombinant virus in the presence of serial dilutions of the compound.
The 50% effective concentration (EC50) was calculated by using the exponential form of the median effect equation where (Fa)=1/[1+(ED50/drug conc.)m] (Johnson V A, Byington R T. Infectivity Assay. In Techniques in HIV Research. ed. Aldovini A, Walker B D. 71-76. New York: Stockton Press. 1990). The 50% inhibitory concentration (EC50) was calculated by using the exponential form of the median effect equation where percent inhibition=1/[1+(EC50/drug concentration)m], where m is a parameter that reflects the slope of the concentration-response curve.

[2] = Compound cytotoxicity, XTT-based colorimetric assay; format: cell-based; conditions: human; uninfected MT2 cells, day 4, XTT
Protocol: Compound cytotoxicity and the corresponding CC50 values were determined using the same protocol as described in the antiviral assay except that uninfected cells were used. Cytotoxicity was assessed on day 4 in uninfected MT2 cells by using a XTT (2,3-bis[2-Methoxy-4-nitro-5-sulfophenyl]-2H-tetrazolium-5-carboxyanilide inner salt)-based colorimetric assay (Sigma-Aldrich, St Louis, Mo.).

SMILES	EC50 [1]	CC50 at 4 days [2]
Cn1nc(NS(C)(=O)=O)c2c(Cl)ccc(-n3c([C@H](Cc4cc(F)cc(F)c4)NC(=O)Cn4nc(C(F)F)c5c4C(F)(F)[C@@H]4C[C@H]54)nc4cc(-c5cc(C(F)(F)F)cc(C(F)(F)F)n5)ccc4c3=O)c21 (atropisomer, axis not shown; (P)) [Example 58, N—((S)-1-(7-(4,6-bis(trifluoromethyl)pyridin-2-yl)-(3P)-3-(4-chloro-1-methyl-3-(methylsulfonamido)-1H-indazol-7-yl)-4-oxo-3,4-dihydroquinazolin-2-yl)-2-(3,5-difluorophenyl)ethyl)-2-((3bS,4aR)-3-(difluoromethyl)-5,5-difluoro-3b,4,4a,5-tetrahydro-1H-cyclopropa[3,4]cyclopenta[1,2-c]pyrazol-1-yl)acetamide]	0.95 nM	> 500 nM
Cc1nc(C)c(F)c(-c2ccc3c(=O)n(-c4ccc(Cl)c5c(NS(C)(=O)=O)nn(C)c45)c([C@H](Cc4cc(F)cc(F)c4)NC(=O)Cn4nc(C(F)F)c5c4C(F)(F)[C@@H]4C[C@H]54)nc3c2)n1 (atropisomer, axis not shown) [Example 119, N-[(1S)-1-[3-(4-chloro-3-methanesulfonamido-1-methyl-1H-indazol-7-yl)-7-(5-fluoro-2,6-dimethylpyrimidin-4-yl)-4-oxo-3,4-dihydroquinazolin-2-yl]-2-(3,5-difluorophenyl)ethyl]-2-[(2S,4R)-9-(difluoromethyl)-5,5-difluoro-7,8-diazatricyclo[4.3.0.0^2,^4]nona-1(6),8-dien-7-yl]acetamide]	0.087 nM	> 500 nM
CCc1cc(C)nc(-c2ccc3c(=O)n(-c4ccc(Cl)c5c(NS(C)(=O)=O)nn(C)c45)c([C@H](Cc4cc(F)cc(F)c4)NC(=O)Cn4nc(C(F)F)c5c4C(F)(F)[C@@H]4C[C@H]54)nc3c2)n1 (atropisomer, axis not shown; (P)) [Example 36, N—((S)-1-((3P)-3-(4-chloro-1-methyl-3-(methylsulfonamido)-1H-indazol-7-yl)-7-(4-ethyl-6-methylpyrimidin-2-yl)-4-oxo-3,4-dihydroquinazolin-2-yl)-2-(3,5-difluorophenyl)ethyl)-2-((3bS,4aR)-3-(difluoromethyl)-5,5-difluoro-3b,4,4a,5-tetrahydro-1H-cyclopropa[3,4]cyclopenta[1,2-c]pyrazol-1-yl)acetamide]	0.087 nM	> 500 nM
CC(C)(C)S(=O)(=O)c1cccc(-c2ccc3c(=O)n(-c4ccc(Cl)c5c(NS(C)(=O)=O)nn(CC(F)F)c45)c([C@H](Cc4cc(F)cc(F)c4)NC(=O)Cn4nc(C(F)F)c5c4C(F)(F)[C@@H]4C[C@H]54)nc3c2)c1 (atropisomer, axis not shown) [Example 127]	0.14 nM	> 500 nM
Cc1ccc(-c2ccc3c(=O)n(-c4ccc(Cl)c5c(NS(C)(=O)=O)nn(C)c45)c([C@H](Cc4cc(F)cc(F)c4)NC(=O)Cn4nc(C(F)F)c5c4C(F)(F)[C@@H]4C[C@H]54)nc3c2)nn1 (atropisomer, axis not shown; (P)) [Example 50, N—((S)-1-((3P)-3-(4-chloro-1-methyl-3-(methylsulfonamido)-1H-indazol-7-yl)-7-(6-methylpyridazin-3-yl)-4-oxo-3,4-dihydroquinazolin-2-yl)-2-(3,5-difluorophenyl)ethyl)-2-((3bS,4aR)-3-(difluoromethyl)-5,5-difluoro-3b,4,4a,5-tetrahydro-1H-cyclopropa[3,4]cyclopenta[1,2-c]pyrazol-1-yl)acetamide]	0.047 nM	> 500 nM
